In US20230127046A1, “G9a INHIBITOR” (RIKEN, priority 2019, published 2023):

target: T1, recombinant human G9a protein (Homo sapiens, UniProt Q96KQ7); experiment: G9a inhibitory activity test (ALPHA); format: biochemical; settings: read-out: Inhibitory activity (G9a IC50)
T1 construct: purchased BPS Bioscience Inc. #51001
T1 sequence (Q96KQ7 785-1210 limits assumed): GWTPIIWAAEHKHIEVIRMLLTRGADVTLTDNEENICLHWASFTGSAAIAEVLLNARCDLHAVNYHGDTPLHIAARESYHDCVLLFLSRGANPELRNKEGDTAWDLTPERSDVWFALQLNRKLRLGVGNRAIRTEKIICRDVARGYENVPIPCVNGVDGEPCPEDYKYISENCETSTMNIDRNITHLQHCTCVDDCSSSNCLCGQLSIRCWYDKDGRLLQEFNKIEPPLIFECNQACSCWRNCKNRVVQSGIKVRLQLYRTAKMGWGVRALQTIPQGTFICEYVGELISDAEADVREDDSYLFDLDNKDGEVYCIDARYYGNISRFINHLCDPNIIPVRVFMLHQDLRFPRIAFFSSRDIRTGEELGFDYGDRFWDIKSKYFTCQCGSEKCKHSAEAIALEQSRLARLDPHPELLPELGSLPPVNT
Protocol: The G9a inhibitory activity of each compound was evaluated by measuring the enzymatic activity of G9a by amplified luminescence proximity homogeneous assay (ALPHA). First, 7.5 μL of a dilution of recombinant human G9a protein (BPS Bioscience Inc., #51001) diluted to 0.05 to 0.1 nM with a Tris buffer solution (50 mM Tris-HCl [pH 9.0], 50 mM NaCl, 0.01% Tween-20, 1 mM DTT), and 0.5 μL of the test compound were added to each well of a 384-well microplate (AlphaPlate-384 Shallow Well, PerkinElmer, Inc., #6008359), mixed by vortex, and incubated at room temperature for 10 minutes. 500 nM biotinylated histone H3 peptide (1-21) (AnaSpec Inc., #61702) and 150 μM SAM (Sigma-Aldrich Co. LLC, #A7007) were mixed at 1:1 in advance, and 2 μL of the mixture was added to each well, mixed by vortex, and then incubated at room temperature for 1 hour. AlphaLISA anti-H3K9me2 acceptor beads (PerkinElmer, Inc., #AL117C) and AlphaScreen streptavidin donor beads (PerkinElmer, Inc., #6760002B) were each diluted with an epigenetic buffer (PerkinElmer, Inc., AlphaLISA Epigenetics Buffer Kit #AL008C) to a final concentration of […] after addition. These dilutions were added to the reaction solution in the dark and incubated at room temperature for 1 hour in the dark. Then, measurement was performed using the EnSpire Alpha plate reader (PerkinElmer, Inc., Waltham, Mass., USA). The G9a inhibitory activity of the test compound was calculated as a compound concentration necessary for suppressing G9a enzymatic activity by 50% (IC50 value), by determining the percent inhibition of the compound when the value of a control without the addition of the compound was defined as 0% and the value of a control without the addition of the enzyme was defined as 100%.

IC50	SMILES
50 to 200 nM	Cc1c(C(=O)NC(CCC2CC2)C(=O)N2CCc3c(OCCN(C)C)cccc32)[nH]c2c1C(=O)CC(C)(C)C2 (stereo not drawn) [Example 1-122]
50 to 200 nM	Cc1c(C(=O)NC(CCC2CC2)C(=O)N2CCc3c(OCCN4CCCCC4)cccc32)[nH]c2c1C(=O)CC(C)(C)C2 (stereo not drawn) [Example 1-123]
50 to 200 nM	Cc1c(C(=O)NC(CCC2CC2)C(=O)N2CCc3c(OC4CCN(C)CC4)cccc32)[nH]c2c1C(=O)CC(C)(C)C2 (stereo not drawn) [Example 1-124]
≥ 200 nM	Cc1c(C(=O)NC(CCC2CC2)C(=O)N2CCc3cc(CN(C)C)ccc32)[nH]c2c1C(=O)CC(C)(C)C2 (stereo not drawn) [Example 1-125]
< 50 nM	Cc1c(C(=O)NC(CCC2CC2)C(=O)N2CCc3c(CN4CCCC4)cccc32)[nH]c2c1C(=O)CC(C)(C)C2 (stereo not drawn) [Example 1-126]
50 to 200 nM	Cc1c(C(=O)NC(CCC2CC2)C(=O)N2CCc3cc(CN4CCCC4)ccc32)[nH]c2c1C(=O)CC(C)(C)C2 (stereo not drawn) [Example 1-127]
< 50 nM	Cc1c(C(=O)NC(CCC2CC2)C(=O)N2CCc3c(CN4CCCCC4)cccc32)[nH]c2c1C(=O)CC(C)(C)C2 (stereo not drawn) [Example 1-128]
≥ 200 nM	Cc1c(C(=O)NC(CCC2CC2)C(=O)N2CCc3cc(CN4CCCCC4)ccc32)[nH]c2c1C(=O)CC(C)(C)C2 (stereo not drawn) [Example 1-129]
≥ 200 nM	COc1ccc2c(c1)CCN2C(=O)C(CCC1CC1)NC(=O)c1[nH]c2c(c1C)C(=O)CC(C)(C)C2 (stereo not drawn) [Example 1-130]
≥ 200 nM	COc1ccc2c(c1)N(C(=O)C(CCC1CC1)NC(=O)c1[nH]c3c(c1C)C(=O)CC(C)(C)C3)CC2 (stereo not drawn) [Example 1-131]
≥ 200 nM	Cc1c(C(=O)NC(CCC2CC2)C(=O)N2CCc3cc(O)ccc32)[nH]c2c1C(=O)CC(C)(C)C2 (stereo not drawn) [Example 1-132]
≥ 200 nM	Cc1c(C(=O)NC(CCC2CC2)C(=O)N2CCc3cc(OCCO)ccc32)[nH]c2c1C(=O)CC(C)(C)C2 (stereo not drawn) [Example 1-133]
50 to 200 nM	Cc1c(C(=O)NC(CCC2CC2)C(=O)N2CCc3cc(OCCN(C)C)ccc32)[nH]c2c1C(=O)CC(C)(C)C2 (stereo not drawn) [Example 1-134]
50 to 200 nM	Cc1c(C(=O)NC(CCC2CC2)C(=O)N2CCc3cc(OCCN4CCCCC4)ccc32)[nH]c2c1C(=O)CC(C)(C)C2 (stereo not drawn) [Example 1-135]
≥ 200 nM	Cc1c(C(=O)NC(CCC2CC2)C(=O)N2CCc3ccc(O)cc32)[nH]c2c1C(=O)CC(C)(C)C2 (stereo not drawn) [Example 1-136]
< 50 nM	Cc1c(C(=O)NC(CCC2CC2)C(=O)Nc2cccc(CN(C)C)c2)[nH]c2c1C(=O)CC(C)(C)C2 (stereo not drawn) [Example 1-137]
< 50 nM	Cc1c(C(=O)NC(CCC2CC2)C(=O)Nc2ccc(CN(C)C)cc2)[nH]c2c1C(=O)CC(C)(C)C2 (stereo not drawn) [Example 1-138]
< 50 nM	Cc1c(C(=O)NC(CCC2CC2)C(=O)Nc2ccc(CCN(C)C)cc2)[nH]c2c1C(=O)CC(C)(C)C2 (stereo not drawn) [Example 1-139]
≥ 200 nM	Cc1c(C(=O)NC(CCC2CC2)C(=O)N2CCc3cc(OCCN(C)C)ccc3C2)[nH]c2c1C(=O)CC(C)(C)C2 (stereo not drawn) [Example 1-140]
50 to 200 nM	CCc1c(C(=O)NC(CCC2CC2)C(=O)N2CCc3c(OCCN(C)C)cccc32)[nH]c2c1C(=O)CC(C)(C)C2 (stereo not drawn) [Example 1-141]
50 to 200 nM	CC(C)c1c(C(=O)NC(CCC2CC2)C(=O)N2CCc3c(OCCN(C)C)cccc32)[nH]c2c1C(=O)CC(C)(C)C2 (stereo not drawn) [Example 1-142]

IC50	SMILES
≥ 200 nM	Cc1c(C(=O)NC(CCC2CC2)C(=O)N2CCc3cc(CN4CCOCC4)ccc32)[nH]c2c1C(=O)CC(C)(C)C2 (stereo not drawn) [Example 1-143]
≥ 200 nM	Cc1c(C(=O)NC(CCC2CC2)C(=O)N2CCc3c(CN4CCOCC4)cccc32)[nH]c2c1C(=O)CC(C)(C)C2 (stereo not drawn) [Example 1-144]
≥ 200 nM	Cc1c(C(=O)NC(CCC2CC2)C(=O)N2CCc3ccc(CN4CCCC4)cc32)[nH]c2c1C(=O)CC(C)(C)C2 (stereo not drawn) [Example 1-145]
≥ 200 nM	Cc1c(C(=O)NC(CCC2CC2)C(=O)N2CCc3ccc(CN4CCCCC4)cc32)[nH]c2c1C(=O)CC(C)(C)C2 (stereo not drawn) [Example 1-146]
≥ 200 nM	Cc1c(C(=O)NC(CCC2CC2)C(=O)N2CCc3cc(N4CCOCC4)ccc32)[nH]c2c1C(=O)CC(C)(C)C2 (stereo not drawn) [Example 1-147]
< 50 nM	Cc1c(C(=O)NC(CCC2CC2)C(=O)NCc2cccc(CN(C)C)c2)[nH]c2c1C(=O)CC(C)(C)C2 (stereo not drawn) [Example 1-148]
< 50 nM	Cc1c(C(=O)NC(CCC2CC2)C(=O)NCc2ccc(CN(C)C)cc2)[nH]c2c1C(=O)CC(C)(C)C2 (stereo not drawn) [Example 1-149]
≥ 200 nM	CCCC[C@@H](NC(=O)c1[nH]c2c(c1C)C(=O)CC(C)(C)C2)C(=O)N[C@@H](C)c1ccccc1 [Example 2-2, 3,6,6-trimethyl-4-oxo-N-((R)-1-oxo-1-(((S)-1-phenylethyl)amino)hexan-2-yl)-4,5,6,7-tetrahydro-1H-indol-2-carboxamide]
50 to 200 nM	CCCC[C@H](NC(=O)c1[nH]c2c(c1C)C(=O)CC(C)(C)C2)C(=O)N[C@H](C)c1ccccc1 [Example 2-3]
≥ 200 nM	CCCC[C@@H](NC(=O)c1[nH]c2c(c1C)C(=O)CC(C)(C)C2)C(=O)N[C@H](C)c1ccccc1 [Example 2-4]
50 to 200 nM	CCCCC(NC(=O)c1[nH]c2c(c1C)C(=O)CC(C)(C)C2)C(=O)N[C@@H](CO)c1ccccc1 (stereo partly drawn) [Example 3-1, N-(1-(((R)-2-hydroxy-1-phenylethyl)amino)-1-oxohexan-2-yl)-3,6,6-trimethyl-4-oxo-4,5,6,7-tetrahydro-1H-indole-2-carboxamide]
≥ 200 nM	CCCCC(NC(=O)c1[nH]c2c(c1C)C(=O)CC(C)(C)C2)C(=O)N[C@H](CO)c1ccccc1 (stereo partly drawn) [Example 3-2]
≥ 200 nM	CCCCC(NC(=O)c1[nH]c2c(c1C)C(=O)CC(C)(C)C2)C(=O)NCc1cccc(CN(C)C)n1 (stereo not drawn) [Example 4, N-[1-[[6-[(dimethylamino)methyl]pyridine-2yl]methylamino]-1-oxohexan-2-yl]-3,6,6-trimethyl-4-oxo-5,7-dihydro-1H-indole-2-carboxamide]
≥ 200 nM	CCCCC(NC(=O)c1[nH]c2c(c1C)C(=O)CC(C)(C)C2)C(=O)Nc1ccccc1C(F)F (stereo not drawn) [Example 5-1, N-[1-[2-(difluoromethyl)anilino]-1-oxohexan-2-yl]-3,6,6-trimethyl-4-oxo-5,7-dihydro-1H-indole-2-carboxamide]
≥ 200 nM	CCCCC(NC(=O)c1[nH]c2c(c1C)C(=O)CC(C)(C)C2)C(=O)Nc1ccc2c(c1)CCN(C)C2 (stereo not drawn) [Example 5-2]
≥ 200 nM	CCCCC(NC(=O)c1[nH]c2c(c1C)C(=O)CC(C)(C)C2)C(=O)Nc1ccccc1CN(C)C (stereo not drawn) [Example 5-3]
< 50 nM	CCc1cc(C)ncc1NC(=O)C(CCC1CC1)NC(=O)c1[nH]c2c(c1C)C(=O)CC(C)(C)C2 (stereo not drawn) [Example 6-1, N-[4-cyclopropyl-1-[(4-ethyl-6-methylpyridin-3-yl)amino]-1-oxobutan-2-yl]-3,6,6-trimethyl-4-oxo-5,7-dihydro-1H-indole-2-carboxamide]
< 50 nM	CCc1ccncc1NC(=O)C(CCC1CC1)NC(=O)c1[nH]c2c(c1C)C(=O)CC(C)(C)C2 (stereo not drawn) [Example 6-2]
50 to 200 nM	CCCCC(NC(=O)c1[nH]c2c(c1C)C(=O)CC(C)(C)C2)C(=O)NCc1cccc(CN(C)CCN(C)C)n1 (stereo not drawn) [Example 6-3]
50 to 200 nM	Cc1ccncc1NC(=O)C(CCC1CC1)NC(=O)c1[nH]c2c(c1C)C(=O)CC(C)(C)C2 (stereo not drawn) [Example 6-4]
50 to 200 nM	Cc1ccc(NC(=O)C(CCC2CC2)NC(=O)c2[nH]c3c(c2C(C)C)C(=O)CC(C)(C)C3)cn1 (stereo not drawn) [Example 6-5]
